Experimental findings from patent publication US5593984A, “Cephalosporin derivatives” (Yuhan Corporation, priority 1992, dated 1997) are described below.

Assay type in all cases: cell-based
One test deals with B. subtilis ATCC 6633. Nature of the test: MIC by agar dilution, B. subtilis ATCC 6633. The conditions noted are these: Bacillus subtilis, ATCC6633, 17 h; B. subtilis ATCC 6633; agar dilution, Mueller-Hinton agar; read-out: Minimal Inhibitory Concentration (MIC). The procedure, abridged:
(§1)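 Minimum inhibitory concentrations come from Mueller-Hinton agar plates with two-fold compound steps, inoculated at 10^6 CFU per ml and incubated 17±1 hours at 35°-37° C.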

For the next test, the system named is Staph. aureus ATCC 6538P. Put plainly: MIC by agar dilution, Staph. aureus ATCC 6538P. The conditions noted are these: Staphylococcus aureus, ATCC6538P, 17 h; Staph. aureus ATCC 6538P; agar dilution, Mueller-Hinton agar; read-out: Minimal Inhibitory Concentration (MIC). The procedure, abridged: as §1
For orientation: Agar dilution tests growth on a series of plates holding different concentrations.

For a further test, the system named is Staph. aureus Smith. Nature of the test: MIC by agar dilution, Staph. aureus Smith. The conditions noted are these: Staphylococcus aureus, 17 h, Mueller-Hinton agar, read-out: Minimal Inhibitory Concentration (MIC). The procedure, abridged: as §1
The subject of a further test is Staph. aureus C-57. Put plainly: MIC by agar dilution, Staph. aureus C-57. As to conditions: Staphylococcus aureus, C57, 17 h, Mueller-Hinton agar, read-out: Minimal Inhibitory Concentration (MIC). The essentials:
as §1

For another test, the system named is Staph. aureus C-5113. Nature of the test: MIC by agar dilution, Staph. aureus C-5113. The conditions noted are these: Staphylococcus aureus, C5113, 17 h, Mueller-Hinton agar, read-out: Minimal Inhibitory Concentration (MIC). The procedure, abridged:
as §1

The test system of the next test is Staph. aureus C-5216. Nature of the test: MIC by agar dilution, Staph. aureus C-5216. The conditions noted are these: Staphylococcus aureus, C5216, 17 h, Mueller-Hinton agar, read-out: Minimal Inhibitory Concentration (MIC). The essentials: as §1
The subject of test [1] is S. epidermidis ATCC 12228. Put plainly: MIC by agar dilution, S. epidermidis ATCC 12228. The conditions noted are these: Staphylococcus epidermidis, ATCC12228, 17 h; S. epidermidis ATCC 12228; agar dilution, Mueller-Hinton agar; read-out: Minimal Inhibitory Concentration (MIC). The essentials:
as §1

A further test deals with Ent. aerogenes IFO 12979. Put plainly: MIC by agar dilution, Ent. aerogenes IFO 12979. The conditions noted are these: Klebsiella aerogenes, IFO12979, 17 h, Mueller-Hinton agar, read-out: Minimal Inhibitory Concentration (MIC). The procedure, abridged:
as §1

Another test concerns Ent. cloacae IFO 13535. Put plainly: MIC by agar dilution, Ent. cloacae IFO 13535. As to conditions: Enterobacter cloacae, IFO13535, 17 h; Ent. cloacae IFO 13535; agar dilution, Mueller-Hinton agar; read-out: Minimal Inhibitory Concentration (MIC). The procedure, abridged: as §1
For another test, the system named is E. coli NIHJ JC-2. Nature of the test: MIC by agar dilution, E. coli NIHJ JC-2. As to conditions: Escherichia coli, NIHJJC2, 17 h; E. coli NIHJ JC-2; agar dilution, Mueller-Hinton agar; read-out: Minimal Inhibitory Concentration (MIC). The essentials: as §1
A further test has as its system E. coli No. 29. Put plainly: MIC by agar dilution, E. coli No. 29. The conditions noted are these: Escherichia coli, 17 h; E. coli No. 29; agar dilution, Mueller-Hinton agar; read-out: Minimal Inhibitory Concentration (MIC). The essentials:
as §1

The next test deals with E. coli DY-1. Nature of the test: MIC by agar dilution, E. coli DY-1. The conditions noted are these: Escherichia coli, DY1, 17 h; E. coli DY-1; agar dilution, Mueller-Hinton agar; read-out: Minimal Inhibitory Concentration (MIC). The essentials:
as §1

The test system of another test is K. pneumoniae NCTC 9632. Put plainly: MIC by agar dilution, K. pneumoniae NCTC 9632. As to conditions: Klebsiella pneumoniae, NCTC9632, 17 h; K. pneumoniae NCTC 9632; agar dilution, Mueller-Hinton agar; read-out: Minimal Inhibitory Concentration (MIC). The procedure, abridged:
as §1

Another test has as its system M. morganii DY-1. Nature of the test: MIC by agar dilution, M. morganii DY-1. The conditions noted are these: Morganella morganii, DY1, 17 h; M. morganii DY-1; agar dilution, Mueller-Hinton agar; read-out: Minimal Inhibitory Concentration (MIC). The procedure, abridged: as §1
Test [2] deals with Ps. aeruginosa ATCC 10145. Nature of the test: MIC by agar dilution, Ps. aeruginosa ATCC 10145. The conditions noted are these: Pseudomonas aeruginosa, ATCC10145, 17 h, Mueller-Hinton agar, read-out: Minimal Inhibitory Concentration (MIC). The essentials:
as §1

Test [3] deals with Ps. aeruginosa NCTC 10490. Nature of the test: MIC by agar dilution, Ps. aeruginosa NCTC 10490. The conditions noted are these: Pseudomonas aeruginosa, NCTC10490, 17 h, Mueller-Hinton agar, read-out: Minimal Inhibitory Concentration (MIC). The essentials:
as §1

The test system of another test is Ps. aeruginosa DY-2. Put plainly: MIC by agar dilution, Ps. aeruginosa DY-2. The conditions noted are these: Pseudomonas aeruginosa, DY2, 17 h; Ps. aeruginosa DY-2; agar dilution, Mueller-Hinton agar; read-out: Minimal Inhibitory Concentration (MIC). The procedure, abridged: as §1
A further test has as its system P. vulgaris NCTC 8313. Nature of the test: MIC by agar dilution, P. vulgaris NCTC 8313. As to conditions: Proteus vulgaris, NCTC8313, 17 h; P. vulgaris NCTC 8313; agar dilution, Mueller-Hinton agar; read-out: Minimal Inhibitory Concentration (MIC). The essentials:
as §1

In the next test the test system is Prov. stuartii IFO 12930. Put plainly: MIC by agar dilution, Prov. stuartii IFO 12930. As to conditions: Providencia stuartii, IFO12930, 17 h, Mueller-Hinton agar, read-out: Minimal Inhibitory Concentration (MIC). The essentials:
as §1

Test [4] has as its system Ser. marcescens IFO 12648. Put plainly: MIC by agar dilution, Ser. marcescens IFO 12648. As to conditions: Serratia marcescens, IFO12648, 17 h; Ser. marcescens IFO 12648; agar dilution, Mueller-Hinton agar; read-out: Minimal Inhibitory Concentration (MIC). The essentials:
as §1

≈ marks a conversion by molar mass, not a printed value.

As to `CCON=C(C(=O)NC1C(=O)N2C(C(=O)[O-])=C(C[n+]3ccn4c(C(N)=O)ccc4c3)CSC12)c1csc(N)n1` (stereo not drawn) [Ex. 16, 7-β-[(Z)-2-(2-aminothiazol-4-yl)-2-ethoxyiminoacetamido]-3-(6-carbamoylpyrrolo[1,2-a]pyrazinium-2-yl)methyl-3-cephem-4-carboxylate], the MIC with B. subtilis ATCC 6633 worked out at 0.1 µg/mL (≈ 0.175 µM); with Staph. aureus ATCC 6538P, 0.2 µg/mL (≈ 0.351 µM); in the test with Staph. aureus Smith it was 0.78 µg/mL (≈ 1.37 µM); in the test on Staph. aureus C-57 it was 12.5 µg/mL (≈ 21.9 µM); in the test on Staph. aureus C-5113 it was 1.56 µg/mL (≈ 2.73 µM); with Staph. aureus C-5216 it was 1.56 µg/mL (≈ 2.73 µM). For the same compound, the MIC turned out to be 0.05 µg/mL (≈ 0.0876 µM) in test [1]; 0.025 µg/mL (≈ 0.0438 µM) in the test with Ent. aerogenes IFO 12979; 0.78 µg/mL (≈ 1.37 µM) in the test on Ent. cloacae IFO 13535; 0.1 µg/mL (≈ 0.175 µM) in the test with E. coli NIHJ JC-2; 0.05 µg/mL (≈ 0.0876 µM) in the test with E. coli No. 29; 0.025 µg/mL (≈ 0.0438 µM) in the test with E. coli DY-1. In addition, the MIC in the test on K. pneumoniae NCTC 9632 was determined as 0.025 µg/mL (≈ 0.0438 µM); in the test with M. morganii DY-1 it was 0.025 µg/mL (≈ 0.0438 µM); in test [2] it was 1.56 µg/mL (≈ 2.73 µM); in test [3] it was 0.39 µg/mL (≈ 0.683 µM); in the test on Ps. aeruginosa DY-2, 6.25 µg/mL (≈ 11 µM); in the test on P. vulgaris NCTC 8313 it was 0.012 µg/mL (≈ 0.021 µM). Also, the MIC came to 0.025 µg/mL (≈ 0.0438 µM) in the test with Prov. stuartii IFO 12930 and 0.1 µg/mL (≈ 0.175 µM) in test [4].
Turning to `CCO/N=C(\C(=O)N[C@@H]1C(=O)N2C(C(=O)[O-])=C(C[n+]3ccn4cccc4c3C)CS[C@H]12)c1csc(N)n1` [Ex. 41, 7-β-[(Z)-2-(2-aminothiazol-4-yl)-2-ethoxyiminoacetamido]-3-(1-methylpyrrolo[1,2-a]pyrazinium-2-yl)methyl-3-cephem-4-carboxylate], the MIC in the test with B. subtilis ATCC 6633 worked out at 0.2 µg/mL (≈ 0.369 µM); with Staph. aureus ATCC 6538P, 0.2 µg/mL (≈ 0.369 µM); in the test with Staph. aureus Smith, 0.39 µg/mL (≈ 0.72 µM); in the test on Staph. aureus C-57, 12.5 µg/mL (≈ 23.1 µM); in the test with Staph. aureus C-5113, 0.78 µg/mL (≈ 1.44 µM); in the test on Staph. aureus C-5216, 1.56 µg/mL (≈ 2.88 µM). Besides, the MIC was 0.1 µg/mL (≈ 0.185 µM) in [1]; 0.025 µg/mL (≈ 0.0462 µM) in the test on Ent. aerogenes IFO 12979; 0.2 µg/mL (≈ 0.369 µM) in the test with Ent. cloacae IFO 13535; 0.025 µg/mL (≈ 0.0462 µM) in the test on E. coli NIHJ JC-2; 0.012 µg/mL (≈ 0.0222 µM) in the test on E. coli No. 29; 0.012 µg/mL (≈ 0.0222 µM) in the test with E. coli DY-1. Further, the MIC was 0.025 µg/mL (≈ 0.0462 µM) with K. pneumoniae NCTC 9632; 0.025 µg/mL (≈ 0.0462 µM) with M. morganii DY-1; 1.56 µg/mL (≈ 2.88 µM) in test [2]; 0.39 µg/mL (≈ 0.72 µM) in [3]; 3.13 µg/mL (≈ 5.78 µM) in the test with Ps. aeruginosa DY-2; not above 0.006 µg/mL with P. vulgaris NCTC 8313. The MIC with Prov. stuartii IFO 12930 was 0.012 µg/mL (≈ 0.0222 µM); in test [4], 0.05 µg/mL (≈ 0.0923 µM).
As for `CO/N=C(\C(=O)N[C@@H]1C(=O)N2C(C(=O)[O-])=C(C[n+]3ccn4c(Br)ccc4c3C)CS[C@H]12)c1nsc(N)n1` [Ex. 59, 7-β-[(Z)-2-(5-amino-1,2,4-thiadiazol-3-yl)-2-methoxyiminoacetamido]-3-(6-bromo-1-methylpyrrolo[1,2-a]pyrazinium-2-yl)methyl-3-cephem-4-carboxylate], the MIC was found to be 0.1 µg/mL (≈ 0.165 µM) in the test with B. subtilis ATCC 6633; 0.1 µg/mL (≈ 0.165 µM) in the test on Staph. aureus ATCC 6538P; 0.39 µg/mL (≈ 0.642 µM) with Staph. aureus Smith; 6.25 µg/mL (≈ 10.3 µM) in the test with Staph. aureus C-57; 0.78 µg/mL (≈ 1.28 µM) in the test on Staph. aureus C-5113; 0.78 µg/mL (≈ 1.28 µM) with Staph. aureus C-5216. Moreover, the MIC in test [1] is 0.05 µg/mL (≈ 0.0823 µM); in the test with Ent. aerogenes IFO 12979 it was not above 0.006 µg/mL; in the test on Ent. cloacae IFO 13535 it was 0.2 µg/mL (≈ 0.329 µM); in the test with E. coli NIHJ JC-2 it was 0.025 µg/mL (≈ 0.0412 µM); with E. coli No. 29, 0.012 µg/mL (≈ 0.0198 µM); in the test with E. coli DY-1, not above 0.006 µg/mL. Besides, the MIC with K. pneumoniae NCTC 9632 was found to be 0.025 µg/mL (≈ 0.0412 µM); in the test on M. morganii DY-1 it was 0.025 µg/mL (≈ 0.0412 µM); in test [2] it was 1.56 µg/mL (≈ 2.57 µM); in test [3], 1.56 µg/mL (≈ 2.57 µM); in the test on Ps. aeruginosa DY-2, 12.5 µg/mL (≈ 20.6 µM); in the test on P. vulgaris NCTC 8313 it was 0.012 µg/mL (≈ 0.0198 µM). Further, the MIC is not above 0.006 µg/mL in the test on Prov. stuartii IFO 12930 and 0.025 µg/mL (≈ 0.0412 µM) in [4].
